Legend:
Hep G2 cells [1] = test: In vitro expression of firefly-luciferase, Hep G2; type: cell-based; settings: cirRNA (SEQ ID NO: 1) LNPs; firefly-luciferase luminescence; Hep G2 cells
Procedure, shortened: (§1)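 Luminescence from cell lysates reports expression: luciferase activity was measured 72 h after transfection with 100 ng/mL RNA-LNPs encoding firefly luciferase.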

[2] = RNA encapsulation efficacy by Quant-IT Ribogreen kit; type: physicochemical; settings: LNP with cirRNA (SEQ ID NO: 1)
Procedure, shortened: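 Ribogreen fluorescence with and without Triton X-100 gave encapsulation as 100% − (intact/lysed) signal; DLS size, PDI and zeta potential measured on a Zetasizer. Particles: 50:10:38.5:1.5 lipid mix, luciferase circRNA or mRNA, lipid:nucleotide 15 or 6, microfluidic assembly at pH 4.5, PBS-dialyzed.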

BALB/C mice = test: In vivo expression, whole-body luminescence (IVIS); settings: cirRNA (SEQ ID NO: 1) LNPs, BALB/C mice
Experimental: 6-8 week old, female BALB/C mice were injected with 0.05 mg*kg-1 of RNA-LNPs encoding for firefly-luciferase by intravenous injection. At 6 hours post injection, animals were intraperitoneally injected with 15 mg/ml of Luciferin substrate and whole-body luminescence was determined by a bioluminescent in vivo imaging system (IVIS).

Hep G2 cells [3] = test: In vitro toxicity (CellTiter-Glo cell viability), Hep G2; type: cell-based; settings: cirRNA (SEQ ID NO: 1) LNPs; Hep G2 cells;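 further: percent of untreated cells luminescence signal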
Procedure, shortened: (§2)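 Luminescent ATP read-out (CellTiter-Glo) gives the viability value, taken 72 h after cells were exposed to RNA-loaded lipid nanoparticles at 1 μg/mL.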

[4] = LNP zeta potential (Zetasizer); type: physicochemical; settings: LNP with cirRNA (SEQ ID NO: 1)
Procedure, shortened: (§3)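 Dynamic light scattering and zeta potential measurements were run on PBS-dialyzed LNPs, which had been formed by microfluidic mixing at 12 ml/min with final lipid at 1.5 mM to 6 mM. RNA content and percent encapsulation were determined by Ribogreen with and without Triton X-100.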

RAW 264.7 cells [5] = test: In vitro expression of firefly-luciferase, RAW 264.7; type: cell-based; settings: cirRNA (SEQ ID NO: 1) LNPs; firefly-luciferase luminescence; RAW 264.7 cells
Procedure, shortened: as §1

RAW 264.7 cells [6] = test: In vitro toxicity (CellTiter-Glo cell viability), RAW 264.7; type: cell-based; settings: cirRNA (SEQ ID NO: 1) LNPs; RAW 264.7 cells;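 further: percent of untreated cells luminescence signal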
Procedure, shortened: as §2

[7] = LNP size and polydispersity index (PDI) by dynamic light scattering; type: physicochemical; settings: LNP with cirRNA (SEQ ID NO: 1); for Size: in nm (unit assumed)
Procedure, shortened: as §3

With `CCCCC/C=C\C/C=C\CCCCCCCCN(CCCCCCCC(=O)OC(CCCCCCCC)CCCCCCCC)CCOC(=O)NCCCn1ccnc1` [Lipid 133, heptadecan-9-yl 8-((2-(((3-(1H-imidazol-1-yl)propyl)carbamoyl)oxy)ethyl)((9Z,12Z)-octadeca-9,12-dien-1-yl)amino)octanoate] the “In vitro Expression HepG2” value (Hep G2 cells [1]) was 4.26E+04, the “Encapsulation Efficiency %” value [2] was 95% and the “In vivo Expression (Whole Body)” value (BALB/C mice) was 2.04E+08. The “In vitro Viability HepG2” value (Hep G2 cells [3]) was 13%, the “Zeta (mV)” value [4] was 2.957 mV and the “In vitro Expression RAW” value (RAW 264.7 cells [5]) was 8.30E+04. The “In vitro Viability RAW” value (RAW 264.7 cells [6]) was 27%, the PDI [7] was 0.0973 and the Size [7] was 92.91.
With `CCCCCCCCCCCOC(=O)CCCCCN(CCCCCCCC(=O)OC(CCCCCCCC)CCCCCCCC)CCOC(=O)NCCN1CCOCC1` [Lipid 161] the “In vitro Expression HepG2” value (Hep G2 cells [1]) was 4.62E+04, the “Encapsulation Efficiency %” value [2] was 75% and the “In vivo Expression (Whole Body)” value (BALB/C mice) was 1.88E+07. For the same compound, the “In vitro Viability HepG2” value (Hep G2 cells [3]) was 95%, the “Zeta (mV)” value [4] was −10.23 mV and the “In vitro Expression RAW” value (RAW 264.7 cells [5]) was 6.74E+03. For the same compound, the “In vitro Viability RAW” value (RAW 264.7 cells [6]) was 81%, the PDI [7] was 0.08727 and the Size [7] was 58.97.
For `CCCCCCCCCCCOC(=O)CCCCCN(CCCCCCCCOC(=O)C(CCCCCC)CCCCCCCC)CCOC(=O)NCCN(C)C` (stereo not drawn) [Lipid 220], the “In vitro Expression HepG2” value (Hep G2 cells [1]) was 3.55E+06, the “Encapsulation Efficiency %” value [2] was 96% and the “In vivo Expression (Whole Body)” value (BALB/C mice) was 1.45E+07. The “In vitro Viability HepG2” value (Hep G2 cells [3]) was 89%, the “Zeta (mV)” value [4] was 10.78 mV and the “In vitro Expression RAW” value (RAW 264.7 cells [5]) was 1.52E+04. The “In vitro Viability RAW” value (RAW 264.7 cells [6]) was 98%, the PDI [7] was 0.304 and the Size [7] was 112.7.
In the case of `CCCCCCCCC(CCCCCC)C(=O)OCCCCCCCCN(CCCCCCCCOC(=O)C(CCCCCC)CCCCCCCC)CCCNCCN(C)C` (stereo not drawn) [Lipid 384], the “In vitro Expression HepG2” value (Hep G2 cells [1]) is reported as 2.57E+06, the “Encapsulation Efficiency %” value [2] is reported as 96% and the “In vivo Expression (Whole Body)” value (BALB/C mice) is reported as 1.15E+07. The “In vitro Viability HepG2” value (Hep G2 cells [3]) was 81%, the “Zeta (mV)” value [4] was 8.213 mV and the “In vitro Expression RAW” value (RAW 264.7 cells [5]) was 3.15E+05. For the same compound, the “In vitro Viability RAW” value (RAW 264.7 cells [6]) was 88%, the PDI [7] was 0.2423 and the Size [7] was 135.9.
With `CCCCCCCCCC(=O)OCCCCCCCN(CCCCCCCCOC(=O)C(CCCCCC)CCCCCCCC)CCCOC(=O)NCCN(C)C` (stereo not drawn) [Lipid 359] the “In vitro Expression HepG2” value (Hep G2 cells [1]) was 9.26E+04, the “Encapsulation Efficiency %” value [2] was 89% and the “In vivo Expression (Whole Body)” value (BALB/C mice) was 1.85E+06. For the same compound, the “In vitro Viability HepG2” value (Hep G2 cells [3]) was 122%, the “Zeta (mV)” value [4] was 6.547 mV and the “In vitro Expression RAW” value (RAW 264.7 cells [5]) was 2.38E+03. For the same compound, the “In vitro Viability RAW” value (RAW 264.7 cells [6]) was 8%, the PDI [7] was 0.337 and the Size [7] was 113.9.
In the case of `CCCCCCCCC(CCCCCCCC)OC(=O)CCCCCCCN(CCCCCCCCOC(=O)C(CCCCCC)CCCCCCCC)CCCOC(=O)NCCc1ncc[nH]1` (stereo not drawn) [Lipid 349], the “In vitro Expression HepG2” value (Hep G2 cells [1]) is reported as 2.42E+04, the “Encapsulation Efficiency %” value [2] is reported as 97% and the “In vivo Expression (Whole Body)” value (BALB/C mice) is reported as 1.01E+07. The “In vitro Viability HepG2” value (Hep G2 cells [3]) was 90%, the “Zeta (mV)” value [4] was 0.02482 mV and the “In vitro Expression RAW” value (RAW 264.7 cells [5]) was 7.58E+03. The “In vitro Viability RAW” value (RAW 264.7 cells [6]) was 87%, the PDI [7] was 0.1452 and the Size [7] was 75.85.
With `CCCCC/C=C\C/C=C\CCCCCCCCN(CCCCCCCC/C=C\C/C=C\CCCCC)CCOC(=O)NCCN(C)C` [Lipid 41, 2-(di((9Z,12Z)-octadeca-9,12-dien-1-yl)amino)ethyl (2-(dimethylamino)ethyl)carbamate] the “In vitro Expression HepG2” value (Hep G2 cells [1]) was 2.77E+01, the “Encapsulation Efficiency %” value [2] was 91% and the “In vivo Expression (Whole Body)” value (BALB/C mice) was 4.69E+04. The “In vitro Viability HepG2” value (Hep G2 cells [3]) was 89%, the “Zeta (mV)” value [4] was 5.74 mV and the “In vitro Expression RAW” value (RAW 264.7 cells [5]) was 1.12E+05. For the same compound, the “In vitro Viability RAW” value (RAW 264.7 cells [6]) was 70%, the PDI [7] was 0.163 and the Size [7] was 186.
In the case of `CCCCCCCC/C=C\CCCCCCCCN(CCCCCCCCOC(=O)C(CCCCCC)CCCCCCCC)CCOC(=O)NCCN1CCN(C)CC1` (stereo not drawn) [Lipid 214], the “In vitro Expression HepG2” value (Hep G2 cells [1]) is reported as 3.88E+06, the “Encapsulation Efficiency %” value [2] is reported as 96% and the “In vivo Expression (Whole Body)” value (BALB/C mice) is reported as 1.18E+06. The “In vitro Viability HepG2” value (Hep G2 cells [3]) was 83%, the “Zeta (mV)” value [4] was 5.906 mV and the “In vitro Expression RAW” value (RAW 264.7 cells [5]) was 1.20E+05. The “In vitro Viability RAW” value (RAW 264.7 cells [6]) was 87%, the PDI [7] was 0.304 and the Size [7] was 76.43.

From US12691070B2, “Cationic lipids and preparation method thereof” (RiboX Therapeutics HK Limited, priority 2023, dated 2026)
